The record followed here is patent US9999222B2, “Herbicidal combination comprising azines” (BASF SE, priority 2014, dated 2018).

Values joined by “and” are separate entries in the source; they are usually repeats but may differ in a detail not shown here. Equal entries are not always repeated. Where two headings read alike, the source gives them in different places.

What all share (assay): Greenhouse test, pre-emergence treatment
For one assay, the system named is ABUTH. The format is in vivo, Abutilon theophrasti. To be noted: Abutilon theophrasti, 480 h. An excerpt: (§1) The culture containers used were plastic flowerpots containing loamy sand with approximately 3.0% of humus as the substrate. The seeds of the test plants were sown separately for each species.
(§2) For the pre-emergence treatment, the active ingredients, which had been suspended or emulsified in water, were applied directly after sowing by means of finely distributing nozzles. The containers were irrigated gently to promote germination and growth and subsequently covered with transparent plastic hoods until the plants had rooted. This cover caused uniform germination of the test plants, unless this had been impaired by the active ingredients.
(§3) Depending on the species, the plants were kept at 10-25° C. or 20-35° C., respectively.
(§4) The test period extended over 2 to 4 weeks. During this time, the plants were tended, and their response to the individual treatments was evaluated.
(§5) Evaluation was carried out using a scale from 0 to 100. 100 means no emergence of the plants, or complete destruction of at least the aerial moieties, and 0 means no damage, or normal course of growth. A moderate herbicidal activity is given at values of at least 60, a good herbicidal activity is given at values of at least 70, and a very good herbicidal activity is given at values of at least 85.
(§6) The respective stated components a and b, and if appropriate, c were formulated as a 10% by weight strength emulsion concentrate and, with addition of the amount of solvent system, introduced into the spray liquor used for applying the active compound.
(§7) In the examples, the solvent used was water.
(§8) In the examples below, using the method of S. R. Colby (1967) “Calculating synergistic and antagonistic responses of herbicide combinations”, Weeds 15, p. 22ff., the value E, which is expected if the activity of the individual active compounds is only additive, was calculated. E=X+Y−(X·Y/100) where • X=percent activity using active compound a at an application rate A; • Y=percent activity using active compound b at an application rate B; • E=expected activity (in %) by a+b at application rates A+B.
(§9) If the value found experimentally is higher than the value E calculated according to Colby, a synergistic effect is present.

The test system of another assay is POLCO. The format is in vivo, Polygonum convolvulus. To be noted: pre-emergence.
From the text: as §1, §2, §3, §4, §5, §6, §7, §8, §9

The subject of a further assay is COMBE. The format is in vivo, Commelina benghalensis. The conditions noted are these: Commelina benghalensis, pre-emergence, 480 h.
From the text: as §1, §2, §3, §4, §5, §6, §7, §8, §9

The next assay concerns EPHHL. The format is in vivo, Euphorbia heterophylla. To be noted: EPHHL, pre-emergence, individual.
From the text: as §1, §2, §3, §4, §5, §6, §7, §8, §9

Another assay concerns GALAP. The format is in vivo, Galium aparine. The conditions noted are these: pre-emergence.
From the text: as §1, §2, §3, §4, §5, §6, §7, §8, §9

The subject of the next assay is GERPU. It is filed as in vivo, Geranium pusillum. To be noted: Geranium pusillum, pre-emergence, 480 h.
From the text: as §1, §2, §3, §4, §5, §6, §7, §8, §9

For the next assay, the system named is KCHSC. It is filed as in vivo, Kochia scoparia. The conditions noted are these: pre-emergence.
From the text: as §1, §2, §3, §4, §5, §6, §7, §8, §9

The next assay has as its system IPOHE. The format is in vivo, Ipomoea hederacea. To be noted: Ipomoea hederacea, 480 h, 750 g ai/ha, 20 DAT, read-out: observed % activity.
From the text: as §1, §2, §3, §4, §5, §6, §7, §8, §9

The subject of a further assay is SIDRH. The format is in vivo, Sida rhombifolia. To be noted: Sida rhombifolia, pre-emergence, 480 h.
From the text: as §1, §2, §3, §4, §5, §6, §7, §8, §9

The subject of a further assay is CENCY. It is filed as in vivo. The conditions noted are these: 480 h, individual, read-out: observed % activity 20 DAT.
The subject of the next assay is ALOMY. It is filed as in vivo, Alopecurus myosuroides. The conditions noted are these: Alopecurus myosuroides, pre-emergence, 480 h.
From the text: as §1, §2, §3, §4, §5, §6, §7, §8, §9

Another assay deals with SETFA. It is filed as in vivo, Setaria faberi. The conditions noted are these: SETFA, use rate 25 g ai/ha, 20 DAT.
From the text: as §1, §2, §3, §4, §5, §6, §7, §8, §9

The mark [1] stands for this setting: 375 g ai/ha, 20 DAT, read-out: observed % activity.
Setting [2] is: 750 g ai/ha, 20 DAT, read-out: observed % activity.

On to `CC(C)c1ccc(NC(=O)N(C)C)cc1` [Isoproturon, isoproturon], for which the inhibition at 375 g/ha with ABUTH (setting [1]) was 20%; in the assay with POLCO (Fallopia convolvulus, 480 h, 375 g ai/ha, 20 DAT, read-out: observed % activity) it was 0%; in the assay with COMBE (setting [1]), 0%; in the assay on GERPU (setting [1]) it was 20%; with SIDRH (setting [1]), 0%. Moreover, the inhibition at 750 g/ha with ABUTH (setting [2]) was found to be 65%; in the assay on POLCO (Fallopia convolvulus, 480 h, 750 g ai/ha, 20 DAT, read-out: observed % activity), 25%; with COMBE (setting [2]), 45%; with GERPU (setting [2]), 40%; with KCHSC (Bassia scoparia, 480 h, 750 g ai/ha, 20 DAT, read-out: observed % activity), 98%; with IPOHE, 40%. Further, the inhibition at 250 g/ha was determined as 50% in the assay on ABUTH (ABUTH, individual, use rate 250 g ai/ha, read-out: observed % activity 20 DAT); 10% in the assay with POLCO (Fallopia convolvulus, 480 h, POLCO, individual, use rate 250 g ai/ha, read-out: observed % activity 20 DAT); 0% in the assay with COMBE (COMBE, individual, use rate 250 g ai/ha, read-out: observed % activity 20 DAT); 30% in the assay on GALAP (Galium aparine, 480 h, GALAP, individual, use rate 250 g ai/ha, read-out: observed % activity 20 DAT); 98% with KCHSC (Bassia scoparia, 480 h, KCHSC, individual, use rate 250 g ai/ha, read-out: observed % activity 20 DAT); 0% with SIDRH (SIDRH, individual, use rate 250 g ai/ha, read-out: observed % activity 20 DAT). Moreover, in the assay on CENCY (use rate 250 g ai/ha), the inhibition at 250 g/ha was 30%. For the same compound, the inhibition at 500 g/ha with ABUTH (ABUTH, individual, use rate 500 g ai/ha, read-out: observed % activity 20 DAT) was 15%; in the assay with COMBE (COMBE, individual, use rate 500 g ai/ha, read-out: observed % activity 20 DAT), 10%; in the assay on EPHHL (Euphorbia heterophylla, 480 h, use rate 500 g ai/ha, read-out: observed % activity 20 DAT), 35%; with GERPU (GERPU, individual, use rate 500 g ai/ha, read-out: observed % activity 20 DAT), 0%; in the assay with KCHSC (Bassia scoparia, 480 h, KCHSC, individual, use rate 500 g ai/ha, read-out: observed % activity 20 DAT) it was 98%; with SIDRH (SIDRH, individual, use rate 500 g ai/ha, read-out: observed % activity 20 DAT), 40%. The inhibition at 500 g/ha in the assay on CENCY (use rate 500 g ai/ha) amounted to 30%. For the same compound, the “observed % activity 20 DAT” value in the assay on EPHHL (use rate 250 g ai/ha) was 10% and 25%; with GALAP (GALAP, individual, use rate 500 g ai/ha), 65% and 15%.
`CCOCN(C(=O)CCl)c1c(C)cccc1CC` [acetochlor]: the inhibition at 125 g/ha in the assay with ALOMY (125 g ai/ha, 20 DAT, read-out: observed % activity) came out at 0%; with GALAP (Galium aparine, 480 h, 125 g ai/ha, 20 DAT, read-out: observed % activity), 60%; in the assay on KCHSC (Bassia scoparia, 480 h, 125 g ai/ha, 20 DAT, read-out: observed % activity), 0%.
With `O=C(O)CNCP(=O)(O)O` [Glyphosate, glyphosate], in the assay on ALOMY (read-out: observed % activity 20 DAT), the inhibition at 125 g/ha amounted to 0%.
Turning to `O=C(Nc1ccc(F)cc1)c1cccc(Oc2cccc(C(F)(F)F)c2)n1` [Picolinafen, picolinafen], the “observed % activity 20 DAT” value stood at 0% in the assay on POLCO (POLCO, use rate 25 g ai/ha, 20 DAT); 0% with POLCO (POLCO, use rate 50 g ai/ha, 20 DAT); 10% in the assay on SETFA; 30% in the assay on KCHSC (KCHSC, use rate 50 g ai/ha, 20 DAT).
